Laboratory results reported in patent US20200095241A1, “SUBSTITUTED 1,2,4-THIADIAZOLYLPYRROLONES AND 1,2,4-THIADIAZOLYLHYDANTOINS AND SALTS THEREOF AND USE THEREOF AS HERBICIDES” (Bayer CropScience Aktiengesellschaft, priority 2016, published 2020).

Tests used:
Abutilon theophrasti [1] = experiment: Post-emergence herbicidal action; format: in vivo; conditions: about 3 weeks after treatment; for pest or weed control at 1280 g/ha: Abutilon theophrasti, 504 h, read-out: Abutilon theophrasti, herbicidal activity rated visually
Description: (§1) Seeds of monocotyledonous and dicotyledonous weeds and crop plants were placed in sandy loam in plastic or wood-fiber pots, covered with soil and cultivated in a greenhouse under controlled growth conditions. 2 to 3 weeks after sowing, the test plants were treated at the one-leaf stage. The compounds of the invention, formulated in the form of wettable powders (WP) or as emulsion concentrates (EC), were then sprayed onto the green parts of the plants as aqueous suspension or emulsion with addition of 0.5% additive at a water application rate of 600 l/ha (converted). After the test plants had been kept in the greenhouse under optimum growth conditions for about 3 weeks, the activity of the preparations was rated visually in comparison to untreated controls. For example, 100% activity=the plants have died, 0% activity=like control plants. Tables A1 to A12 below show the effects of selected compounds of the general formula (I) according to Tables I.1 to I.44 on various harmful plants and an application rate corresponding to 1280 g/ha or 320 g/ha, which were obtained by the experimental procedure mentioned above.

Hordeum murinum = experiment: Post-emergence herbicidal action; format: in vivo; conditions: 1280 g/ha, about 3 weeks after treatment
Description: as §1

Pharbitis purpurea [2] = experiment: Post-emergence herbicidal action; format: in vivo; conditions: 1280 g/ha, about 3 weeks after treatment
Description: as §1

Setaria viridis [3] = experiment: Post-emergence herbicidal action; format: in vivo; conditions: Setaria viridis, 504 h, 1280 g/ha, about 3 weeks after treatment, read-out: Setaria viridis, herbicidal activity rated visually
Description: as §1

Stellaria media [4] = experiment: Post-emergence herbicidal action; format: in vivo; conditions: 1280 g/ha, about 3 weeks after treatment; for pest or weed control at 1280 g/ha: Stellaria media, 504 h, read-out: Stellaria media, herbicidal activity rated visually
Description: as §1

Viola tricolor [5] = experiment: Post-emergence herbicidal action; format: in vivo; conditions: 504 h, 1280 g/ha, about 3 weeks after treatment, read-out: Viola tricolor, herbicidal activity rated visually
Description: as §1

Abutilon theophrasti [6] = experiment: Pre-emergence herbicidal action; format: in vivo; conditions: 1280 g/ha, after about 3 weeks
Text: (§2) Seeds of monocotyledonous and dicotyledonous weed plants and crop plants were placed in plastic or organic planting pots and covered with soil. The compounds of the invention, formulated in the form of wettable powders (WP) or as emulsion concentrates (EC), were then applied onto the surface of the covering soil as aqueous suspension or emulsion with addition of 0.5% additive at a water application rate of 600 l/ha (converted). After the treatment, the pots were placed in a greenhouse and kept under good growth conditions for the test plants. After about 3 weeks, the effect of the preparations was scored visually in comparison with untreated controls as percentages. For example, 100% activity=the plants have died, 0% activity=like control plants. Tables B1 to B15 below show the effects of selected compounds of the general formula (I) according to Tables I.1 to I.44 on various harmful plants and an application rate corresponding to 1280 g/ha or 320 g/ha, which were obtained by the experimental procedure mentioned above.

Alopecurus myosuroides [7] = experiment: Pre-emergence herbicidal action; format: in vivo; conditions: 1280 g/ha, after about 3 weeks
Text: as §2

Matricaria inodora [8] = experiment: Pre-emergence herbicidal action; format: in vivo; conditions: after about 3 weeks
Text: as §2

Polygonum convolvulus [9] = experiment: Pre-emergence herbicidal action; format: in vivo; conditions: 1280 g/ha, after about 3 weeks
Text: as §2

Setaria viridis [10] = experiment: Pre-emergence herbicidal action; format: in vivo; conditions: 1280 g/ha, after about 3 weeks; for pest or weed control at 1280 g/ha: Setaria viridis, 504 h, read-out: Setaria viridis, herbicidal effect scored visually
Text: as §2

Stellaria media [11] = experiment: Pre-emergence herbicidal action; format: in vivo; conditions: after about 3 weeks; for pest or weed control at 1280 g/ha: Stellaria media, 504 h, read-out: Stellaria media, herbicidal effect scored visually
Text: as §2

Viola tricolor [12] = experiment: Pre-emergence herbicidal action; format: in vivo; conditions: Viola tricolor, 504 h, 1280 g/ha, after about 3 weeks, read-out: Viola tricolor, herbicidal effect scored visually
Text: as §2

photosystem II (PS II) = biological target: T1, photosystem II (PS II) (Spinacia oleracea, UniProt P69560); experiment: Measurement of the PS II activity in thylakoid membranes (DCPIP reduction); format: biochemical; conditions: 100 μM test compound, spinach thylakoid membranes, DCPIP 120 μM, 10 min at 22° C. with exposure to light; for inhibition at 100 µM (stock): read-out: Effect (inhibition of PS II activity)
T1 construct: the chloroplasts were osmotically ruptured and the thylakoid membranes were then obtained by centrifugation; from tissue; host or cells: fresh spinach leaves; thylakoid membranes isolated from chloroplasts
Description: Cooled fresh spinach leaves were comminuted and homogenized in 50 mM phosphate buffer, pH 6.8. 10 mM KCl, 0.34 M sucrose (sucrose buffer) (blender, 1 g of plant material/ml). The homogenate was subsequently filtered through 4 layers of Miracloth and the chloroplasts were isolated by centrifugation, i.e. 10 min of centrifugation at 4400×g (4° C.). The sediment was suspended in 25 ml of sucrose buffer and re-centrifuged for 10 min at 4400×g (4° C.). The sediment was then suspended in 40 ml of 50 mM phosphate buffer, pH 6.8, 10 mM KCl, without sucrose. In this step, the chloroplasts were osmotically ruptured and the thylakoid membranes were then obtained by centrifugation (10 min, 4400×g, 4° C.). The membrane sediment was finally suspended in 20 ml of 50 mM phosphate buffer, pH 6.8, 10 mM KCl. Following protein determination and activity determination, the membrane suspension was divided into aliquots and frozen in liquid nitrogen. The aliquots were stored at −80° C. Under these conditions, the photosystem II preparation was storage stable for at least three months. The activity determination of photosystem II (PS II) was then carried out using the following test principle:
The electron transfer from PS II to an artificial electron acceptor, 2,6-dichlorophenolindophenol (DCPIP), was measured with exposure to light. The concentration of the blue oxidized form of DCPIP was determined spectrophotometrically at wavelength λ=595 nm. […] The activity determination was carried out in microtiter plates (96 cavities) in a reaction volume of 200 μl. Here, 155 μl of dilute membrane suspension were initially charged in 50 mM of phosphate buffer, pH 6.8, 10 mM KCl. Depending on the activity of the PS II preparation, the dilution was adjusted such that the measurement of the decrease in absorption (λ=595 nm) was linear for at least 10 min. In each case 5 μl solution of the test compounds of a concentration of 100 μM in DMSO were added to the enzyme suspension; controls contained 5 μl DMSO; the final concentration of DMSO in the reaction batch was thus 2.5% (v/v); this concentration had no adverse effect on the enzymatic activity. On each microtiter plate, a known PS II inhibitor, for example metribuzin, was used as standard, which allowed the quality of the PS II test to be assessed. The reaction was started by addition of 40 μl DCPIP solution (600 μM in distilled water); the final concentration of DCPIP was 120 μM. Measurement of absorption was carried out over a period of 10 min at 22° C. and with exposure to light. Using metribuzin as comparative substance, the results for the efficacy of the compounds of the general formula (I) at 100 μM are stated in the table below using the following classification: ++++ (inhibition≥90%), +++ ([…]≥70%), ++ (70%>inhibition≥50%), + (50%>inhibition≥30%).

Amaranthus retroflexus [13] = experiment: Pre-emergence herbicidal action; format: in vivo; conditions: after about 3 weeks
Text: as §2

Lolium rigidum = experiment: Pre-emergence herbicidal action; format: in vivo; conditions: 1280 g/ha, after about 3 weeks
Text: as §2

Poa annua = experiment: Pre-emergence herbicidal action; format: in vivo; conditions: 1280 g/ha, after about 3 weeks
Text: as §2

Alopecurus myosuroides [14] = experiment: Post-emergence herbicidal action; format: in vivo; conditions: 1280 g/ha, about 3 weeks after treatment
Description: as §1

Amaranthus retroflexus [15] = experiment: Post-emergence herbicidal action; format: in vivo; conditions: 1280 g/ha, about 3 weeks after treatment
Description: as §1

Matricaria inodora [16] = experiment: Post-emergence herbicidal action; format: in vivo; conditions: 1280 g/ha, about 3 weeks after treatment
Description: as §1

Veronica persica [17] = experiment: Post-emergence herbicidal action; format: in vivo; conditions: about 3 weeks after treatment
Description: as §1

Pharbitis purpurea [18] = experiment: Pre-emergence herbicidal action; format: in vivo; conditions: 1280 g/ha, after about 3 weeks
Text: as §2

Polygonum convolvulus [19] = experiment: Post-emergence herbicidal action; format: in vivo; conditions: 1280 g/ha, about 3 weeks after treatment
Description: as §1

Veronica persica [20] = experiment: Pre-emergence herbicidal action; format: in vivo; conditions: 1280 g/ha, after about 3 weeks
Text: as §2

Echinochloa crus-galli [21] = experiment: Post-emergence herbicidal action; format: in vivo; conditions: 1280 g/ha, about 3 weeks after treatment
Description: as §1

Echinochloa crus-galli [22] = experiment: Pre-emergence herbicidal action; format: in vivo; conditions: 1280 g/ha, after about 3 weeks
Text: as §2

[23] = Tripleurospermum inodorum, 504 h, 1280 g/ha, read-out: Matricaria inodora, herbicidal effect scored visually

Row | inhibition at 100 µM (stock) (photosystem II (PS II)) | Compound | pest or weed control at 1280 g/ha (Abutilon theophrasti [1]) | Pharbitis purpurea, herbicidal activity rated visually (Pharbitis purpurea [2]) | pest or weed control at 1280 g/ha (Setaria viridis [3]) | pest or weed control at 1280 g/ha (Stellaria media [4]) | pest or weed control at 1280 g/ha (Viola tricolor [5]) | Abutilon theophrasti, herbicidal effect scored visually (Abutilon theophrasti [6]) | Alopecurus myosuroides, herbicidal effect scored visually (Alopecurus myosuroides [7]) | pest or weed control at 1280 g/ha (Matricaria inodora [8]; [23]) | Polygonum convolvulus, herbicidal effect scored visually (Polygonum convolvulus [9]) | pest or weed control at 1280 g/ha (Setaria viridis [10]) | pest or weed control at 1280 g/ha (Stellaria media [11]) | pest or weed control at 1280 g/ha (Viola tricolor [12]) | Amaranthus retroflexus, herbicidal effect scored visually (Amaranthus retroflexus [13]; 1280 g/ha) | Lolium rigidum, herbicidal effect scored visually (Lolium rigidum) | Poa annua, herbicidal effect scored visually (Poa annua) | Alopecurus myosuroides, herbicidal activity rated visually (Alopecurus myosuroides [14]) | Amaranthus retroflexus, herbicidal activity rated visually (Amaranthus retroflexus [15]) | Matricaria inodora, herbicidal activity rated visually (Matricaria inodora [16]) | also measured
1 | > 90% | CCCc1nsc(N2C(=O)C(C)=C(C)C2O)n1 (centres unmarked) [I.2-4, 3,4-Dimethyl-5-hydroxy-1-[3-(n-propyl)-1,2,4-thiadiazol-5-yl)-1,5-dihydro-2H-pyrrol-2-one] | 90% | 90% | 100% | 80% | 80% | 80% | 90% | 100% | 100% | 100% | 100% | 100% |  |  |  |  |  |  | Hordeum murinum, herbicidal activity rated visually (Hordeum murinum): 80%
2 |  | CC1=C(C)C(O)N(c2nc(SCCOC(F)(F)F)ns2)C1=O (centres unmarked) [I.2-338] |  |  |  |  |  |  |  |  |  |  |  |  | 90% | 90% | 90% |  |  |  | Abutilon theophrasti, herbicidal activity rated visually (Abutilon theophrasti [1]; 320 g/ha): 100%; Stellaria media, herbicidal activity rated visually (Stellaria media [4]): 90%; Matricaria inodora, herbicidal effect scored visually (Matricaria inodora [8]; 1280 g/ha): 90%; Setaria viridis, herbicidal effect scored visually (Setaria viridis [10]): 90%; Stellaria media, herbicidal effect scored visually (Stellaria media [11]; 320 g/ha): 90%; Effect (inhibition of PS II activity) (photosystem II (PS II)): ++++ (inhibition≥90%)
3 | > 90% | CC1=C(Cl)C(=O)N(c2nc(C3CC3)ns2)C1O (centres unmarked) [I.3-11, 3-Chloro-4-methyl-5-hydroxy-1-(3-cyclopropyl-1,2,4-thiadiazol-5-yl)-1,5-dihydro-2H-pyrrol-2-one] | 100% | 100% |  | 100% | 100% | 80% | 100% | 100% | 80% | 90% | 100% | 100% |  | 80% |  | 80% | 100% | 90% | Veronica persica, herbicidal activity rated visually (Veronica persica [17]; 1280 g/ha): 80%; Pharbitis purpurea, herbicidal effect scored visually (Pharbitis purpurea [18]): 100%
4 | 50 to 70% | CN1CC(O)N(c2ncns2)C1=O (centres unmarked) [I.13-1, 4-Hydroxy-1-methyl-3-[1,2,4-thiadiazol-5-yl]-imidazolidin-2-one] | 100% | 90% | 80% | 90% | 100% |  |  |  |  | 80% | 100% | 100% |  |  |  | 80% | 100% |  | Polygonum convolvulus, herbicidal activity rated visually (Polygonum convolvulus [19]): 100%; Veronica persica, herbicidal activity rated visually (Veronica persica [17]; 320 g/ha): 80%; Amaranthus retroflexus, herbicidal effect scored visually (Amaranthus retroflexus [13]; 320 g/ha): 100%; pest or weed control at 320 g/ha (Matricaria inodora [8]; Tripleurospermum inodorum, 504 h, 320 g/ha, read-out: Matricaria inodora, herbicidal effect scored visually): 90%; Veronica persica, herbicidal effect scored visually (Veronica persica [20]): 90%
5 |  | COC(=O)OC1C(C)=C(C)C(=O)N1c1nc(C2CC2)ns1 (centres unmarked) [I.17-11, 3,4-Dimethyl-5-methoxycarbonyloxy-1-[3-(cyclopropyl)-1,2,4-thiadiazol-5-yl]-1,5-dihydro-2H-pyrrol-2-one] | 100% |  | 100% | 100% |  | 100% |  | 100% |  | 100% | 100% |  | 100% | 90% | 100% |  | 100% | 100% | Echinochloa crus-galli, herbicidal activity rated visually (Echinochloa crus-galli [21]): 100%; Echinochloa crus-galli, herbicidal effect scored visually (Echinochloa crus-galli [22]): 100%
